US12186303B2, “Feed additive for cattle comprising n-acetyl-l-tryptophan as active ingredient” (CJ CHEILJEDANG CORPORATION, priority 2018, dated 2025)

System: Korean native steers
Test: Feed intake and drinking water intake according to NALT feeding under heat stress conditions
Type: in vivo, Korean native cattle
Conditions: for Drinking water intake / Feed intake: 0.1% NALT
Description: After grouping the animals by statistical analysis of initial body weights, the animals were bred in 1.0×1.5 m^2 individual pens during the experiment period. The feed was offered based on an amount of dry matter of daily total mixed ration (TMR) per head. After 7 days of an adaptation period for N-acetyl-L-tryptophan (NALT), a mixture of 0.1% N-acetyl-L-tryptophan (NALT) and the total mixed ration was fed to individual animals every morning at 8 a.m. for 6 weeks, and water was available ad libitum. Total amounts of L-tryptophan ingested by the control and the experimental group (NALT-treated group) by feeding NALT were 6.0 g/day/head and 18.2 g/day/head, respectively. The experiment was performed such that the NALT-treated group ingested 12.2 g/day/head more L-tryptophan than the control.
Meanwhile, results of growth performance analysis (body weight and average feed intake) and genetic analysis of loin tissue were obtained by statistically comparing and analyzing significant differences between the control and the NALT-treated group, and results of hematological analysis were obtained via statistical comparison and analysis depending on NALT treatment, experiment period (days), and interaction (treatment×days). These numerical values were expressed as average values, and a significance test was performed at the 5% level using Student's t-test by using a JMP 5.0 software package (SAS Institute Inc., Cary, NC, USA).
Temperature (° C.) and relative humidity (%) were recorded every day during a one-week adaptation period and a 6-week experiment period using a portable temperature and humidity meter. Average temperature and average relative humidity of each week were calculated using the temperature and relative humidity recorded during the total experiment period. In addition, a temperature-humidity index (THI) was calculated using temperature and humidity as shown in the following equation, and heat stress state may be diagnosed using the THI as an index feature of a heat load. THI=(1.8×T+32)−[0.55−0.0055×RH)×(1.8×T−26.8)
Feed intake of each sentinel animal was calculated by measuring a total amount of feed offered and an amount left over every day, and drinking water intake thereof was calculated every day by measuring a total amount of drinking water offered and an amount left over. Also, since the amount of feed left over was measured in pen units, DMI/BW % was calculated using the equation DMI/BW %=1.2425+1.9218×NEm−0.7259×(NEm)^2 and corrected using actual data of the experiment to calculate data for each of the two heads included in each pen. Analysis results of changes in feed intake and drinking water intake of the control and the NALT-treated group are shown in Table 12. […] Based thereon, it may be interpreted that the feed intake of cattle fed with NALT increased compared with the control without having increased drinking water intake even under heat stress conditions.

CC(=O)N[C@@H](Cc1c[nH]c2ccccc12)C(=O)O [NALT, N-acetyl-L-tryptophan]
Drinking water intake (THIavg < 80): 35.3 kg
Feed intake (THIavg < 80): 13.7 kg
Drinking water intake (THIavg > 80): 44.6 kg
Feed intake (THIavg > 80): 13.5 kg
Feed intake compared to the control (THI of 80 or more): significantly increased
Average feed intake (entire experiment period): 13.62 kg/day
Average feed intake compared with the control (entire experiment period): no statistically significant difference
Drinking water intake compared with the control (regardless of THI conditions): statistically significant decrease
